# From patent US20200399329A1, “ANTIMICROBIAL PEPTIDES” (priority 2015, published 2020)
# Where a SMILES comes first, the peptide text is derived from it. Bridges are numbered along the chain shown (N, C = ends).
# Key:
# [1] = system: K. pneu Sens. 700603 QC strain; format: cell-based, K. pneumoniae
# Protocol: (§1) In order to determine the MIC values of the peptides, growth and inhibition of various bacteria were monitored after treatment with the peptides of the invention (Table B). E. coli, K. pneumoniae, P. aeruginosa and Salmonella bacteria were cultured at 37° C. and at 5×10^6 CFU/ml in a standard 96-well-plate, in Mueller Hinton broth. […] The growth of the bacteria was continuously monitored via spectrophotometry at a wave-length of 625 nm. As bacterial growth progresses, Optical density at 625 nm (OD625 nm) values increase, and where the bacterial growth is inhibited, OD625 nm values remain constant. The experimental system and parameters described herein were used to determine the MIC values of OMN3, OMN5, OMN8 and OMN9 on various bacteria strains (Table B). Using the standard MHB MIC testing for antibiotic activity
# [2] = system: P. aeruginosa BAA-2795; format: cell-based, Pseudomonas aeruginosa
# Protocol: as §1
# [3] = system: P. aeruginosa BAA-2796; format: cell-based, Pseudomonas aeruginosa
# Protocol: as §1
# [4] = system: E. coli ESBL BAA-198; format: cell-based, Escherichia coli
# Protocol: as §1
# [5] = system: E. coli Sens. 25922 QC strain; format: cell-based, Escherichia coli
# Protocol: as §1
# [6] = system: E. coli CR BAA-2452; format: cell-based, Escherichia coli
# Protocol: as §1
# [7] = system: K . pneu KPC + BAA-2344; format: cell-based, Klebsiella pneumoniae
# Protocol: as §1
# [8] = system: K. pneu NDM1 BAA-2473; format: cell-based, Klebsiella pneumoniae
# Protocol: as §1
# [9] = system: E. coli strains; format: cell-based
# Protocol: as §1
compound,measurement,setting,value
CC[C@H](C)[C@@H]1NC(=O)CNC(=O)[C@H](CC(N)=O)NC(=O)[C@H](CCCNC(=N)N)NC(=O)[C@H]([C@@H](C)CC)NC(=O)[C@H](CC(N)=O)NC(=O)[C@H](CCCNC(=N)N)NC(=O)CNC(=O)[C@H](C(C)C)NC(=O)[C@H](CCCCN)NC(=O)[C@H](CCC(=O)O)NC(=O)[C@H]([C@@H](C)CC)NC(=O)[C@H](CCCCN)NC(=O)[C@H](CCCCN)NC(=O)[C@H](Cc2ccccc2)NC(=O)[C@H]([C@@H](C)CC)NC(=O)[C@H](CCCCN)NC(=O)[C@H](Cc2c[nH]c3ccccc23)NC(=O)[C@H](CCCCN)NC(=O)[C@@H](NC(=O)[C@@H](N)CCSC)CSSC[C@@H](C(=O)O)NC(=O)[C@H](CC(C)C)NC(=O)[C@H](C)NC(=O)[C@H](CCCCN)NC(=O)[C@H](C)NC(=O)[C@H](CCC(=O)O)NC(=O)CNC(=O)[C@H](CC(C)C)NC(=O)[C@H](C(C)C)NC(=O)[C@H](C)NC(=O)[C@H](C(C)C)NC(=O)[C@H](C)NC(=O)[C@@H]2CCCN2C(=O)CNC(=O)[C@H](C)NC(=O)[C@H](CCCCN)NC(=O)[C@H]([C@@H](C)CC)NC1=O [OMN9] (H-MCKWKIFKKIEKVGRNIRNGIIKAGPAVAVLGEAKALC-OH; disulfide 2-38; N-terminus and C-terminus assumed),MIC,[1],32 mg/L
same,MIC,[2],64 mg/L
same,MIC,[3],64 mg/L
same,MIC,[4],4 mg/L
same,MIC,[5],8 mg/L
same,MIC,[6],8 mg/L
same,MIC,[7],64 mg/L
same,MIC,[8],32 mg/L
same,MIC for E. coli strains,[9],4 to 8 mg/L
